The text below walks through data of publication PMC9602571, “Discovery of a Dual SENP1 and SENP2 Inhibitor” (International Journal of Molecular Sciences, 2022).

Data set [1] concerns the target T1, UCHL1 (Homo sapiens, UniProt P09936).
T1 construct: purchased SignalChem U22-30H
T1 sequence (P09936 1-223): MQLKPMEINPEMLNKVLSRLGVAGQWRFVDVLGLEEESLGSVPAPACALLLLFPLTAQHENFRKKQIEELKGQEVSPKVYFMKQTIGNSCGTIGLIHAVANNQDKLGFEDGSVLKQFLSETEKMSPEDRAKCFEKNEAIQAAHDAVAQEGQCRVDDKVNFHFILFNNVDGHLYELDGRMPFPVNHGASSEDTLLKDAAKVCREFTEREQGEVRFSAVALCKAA
The data set can be described thus: UCHL1 activity assay, Ubiquitin-AMC substrate. The class given is biochemical. As to conditions: n = 2. On the procedure: (§1) IC50 measurements were conducted at Reaction Biology Corporation, Malvern, PA, USA, with two replications using 10 concentrations starting at 200 μM with three-fold dilution. Curve fits were performed where the enzyme activities at the highest concentration of compounds were less than 65%. UCHL1 II was used as a control inhibitor. The procedure was performed analogous to the fluorogenic SENP2 assay described in 3.3.2. using the UCHL1 enzyme (SignalChem Cat# U22-30H) and Ubiquitin-AMC substrate (Enzo Cat# BML-SE211-0025). The final reaction conditions contained 0.2 nM UCHL1 and 100 nM Ubiquitin-AMC.

The target of data set [2] is T2, Ataxin-3 (Homo sapiens, UniProt P54252).
T2 construct: purchased BPS 80399
T2 sequence (P54252 whole entry): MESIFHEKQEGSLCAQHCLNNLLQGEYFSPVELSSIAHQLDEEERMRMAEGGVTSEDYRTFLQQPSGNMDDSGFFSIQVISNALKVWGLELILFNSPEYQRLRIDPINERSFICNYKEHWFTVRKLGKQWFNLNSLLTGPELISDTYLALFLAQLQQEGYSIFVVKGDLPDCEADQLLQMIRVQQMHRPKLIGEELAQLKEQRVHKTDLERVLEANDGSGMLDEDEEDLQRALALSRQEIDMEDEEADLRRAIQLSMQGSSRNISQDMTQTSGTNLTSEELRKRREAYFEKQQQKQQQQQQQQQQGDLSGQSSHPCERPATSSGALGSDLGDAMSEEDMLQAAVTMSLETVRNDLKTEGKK
The data set can be described thus: Ataxin-3 activity assay, Ubiquitin-AMC substrate. Format: biochemical. Conditions: n = 2. On the procedure:
as §1, with “the Ataxin-3” for “the UCHL1”, “enzyme (BPS” for “enzyme (SignalChem”, “Cat# 80399)” for “Cat# U22-30H)”, “contained 500” for “contained 0.2”, “nM Ataxin-3” for “nM UCHL1”

For data set [3], the target named is T3, SENP2 (Homo sapiens, UniProt Q9HC62).
T3 construct: Human recombinant catalytic domain expressed in E. coli; purchased Enzo BML-UW9765; host or cells: E. coli
T3 sequence (Q9HC62 396-560 limits assumed): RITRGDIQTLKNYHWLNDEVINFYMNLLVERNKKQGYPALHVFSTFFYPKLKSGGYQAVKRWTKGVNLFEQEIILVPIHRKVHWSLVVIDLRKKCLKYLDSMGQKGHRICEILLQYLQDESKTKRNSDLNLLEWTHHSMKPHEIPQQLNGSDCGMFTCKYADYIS
The data set can be described thus: Fluorogenic SENP2 assay, SUMO1-AMC substrate. Format: biochemical. As to conditions: n = 2. On the procedure: The IC50 measurements were conducted at Reaction Biology Corporation, Malvern, PA, USA, with two replications using 10 concentrations starting at 200 μM with a three-fold dilution. Curve fits were performed where the enzyme activities at the highest concentration of compounds were less than 65%. UCH-L3 I was used as a control inhibitor. To SENP2 (Enzo Cat# BML-UW9765, Human recombinant catalytic domain expressed in E. coli.) in reaction buffer (50 mM HEPES, 150 mM NaCl, 0.5 mM EDTA, 1 mM DTT, pH 7.5, 0.01% CHAPS) was delivered the compound stock solution by acoustic technology (Echo550; nanoliter range) and subsequently incubated for 15 min at ambient temperature. The substrate SUMO1-AMC (R&D Systems Cat# UL-551-050, Lot# 07613314A, Fluorescence labeled full-length SUMO1 protein) was delivered to the well-plate to initiate the reaction. The enzyme activities were monitored (Ex/Em = 355/460 nm) as a time-course measurement of the increase in fluorescence signal from SUMO1-AMC for 90 min at ambient temperature. The data were analyzed by taking the slope (signal/time) of linear portion of measurement. The slope was calculated using Excel and the curve fits were performed using GraphPad Prism7 with a four-parameter least-squares fit. The final reaction conditions contained 0.015 nM SENP2 and 300 nM SUMO1/2 or 3-AMC.

The target of data set [4] is T4, SENP1 (Homo sapiens, UniProt Q9P0U3).
T4 construct: Human recombinant, His6-SENP1 Catalytic Domain; His6 (N); purchased Boston Biochem (Bio-Techne AG) E-700
T4 sequence (Q9P0U3 450-613 limits assumed): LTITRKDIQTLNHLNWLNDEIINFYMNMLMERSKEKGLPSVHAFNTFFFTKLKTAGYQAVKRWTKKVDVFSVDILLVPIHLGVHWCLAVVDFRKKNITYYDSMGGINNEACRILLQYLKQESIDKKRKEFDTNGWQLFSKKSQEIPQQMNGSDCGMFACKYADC
The data set can be described thus: Fluorogenic SENP1 assay, SUMO1-AMC substrate. The class given is biochemical. As to conditions: for IC50: SUMO1-AMC 300 nM, 0.02 nM SENP1, interval in parentheses, read-out: IC50 SENP1. On the procedure: Human recombinant, His6-SENP1 Catalytic Domain (Boston Biochem Cat# E-700, Bio-Techne AG, Zug, Switzerland) was prepared in reaction buffer (50 mM HEPES, 150 mM NaCl, 0.5 mM EDTA, 1 mM DTT, pH 7.5, 0.01% CHAPS). To this solution, a 20 mM or 50 mM inhibitor stock solution in DMSO was added and the mixture was incubated for 15 min at ambient temperature. […] The slope was calculated using Excel and the curve fits were performed using GraphPad Prism7 with a four-parameter least-squares fit. The final reaction conditions contained 0.02 nM SENP1 and 300 nM SUMO1/2 or 3-AMC).

The target in data set [5] is T4, SENP1. The data set can be described thus: Fluorogenic SENP1 assay, SUMO2-AMC substrate. Conditions: n = 2. The class given is biochemical. On the procedure: (§2) Human recombinant, His6-SENP1 Catalytic Domain (Boston Biochem Cat# E-700, Bio-Techne AG, Zug, Switzerland) was prepared in reaction buffer (50 mM HEPES, 150 mM NaCl, 0.5 mM EDTA, 1 mM DTT, pH 7.5, 0.01% CHAPS). To this solution, a 20 mM or 50 mM inhibitor stock solution in DMSO was added and the mixture was incubated for 15 min at ambient temperature. […] The data were analyzed by taking the slope (signal/time) of the linear portion of measurement. The slope was calculated using Excel and the curve fits were performed using GraphPad Prism7 with a four-parameter least-squares fit. The final reaction conditions contained 0.02 nM SENP1 and 300 nM SUMO1/2 or 3-AMC).

Data set [6] deals with T4, SENP1. The data set can be described thus: Fluorogenic SENP1 assay, SUMO3-AMC substrate. The class given is biochemical. Conditions: n = 2. As to the method: as §2
Data set [7] addresses T4, SENP1. The data set can be described thus: Photo crosslinking experiments with SENP1. As to conditions: probe 200 µM, SENP1 10 µM, UV 30 min. Format: binding. On the procedure:
A buffer exchange of the commercially available 6 × His-SENP1 Protein (Boston Biochem Cat# E-700) to a 50 mM HEPES, 150 mM NaCl; 0.5 mM EDTA, 1 mM DTT, pH 7.5 was performed. A total of 200 μM of the photo affinity probe 56 with or without competitor molecule 11 (400 μM) was incubated in 10 uM SENP1 for 30 min at 0 °C. Subsequently, the mixtures were irradiated in a Proma UV exposure unit equipped with four 8 Watt lamps (Hitachi FL8BL-8, ~350 nm) for 30 min at 0 °C. Then, 50 µL of the crosslinked proteins were mixed with freshly prepared click mix solution (50 μL; 1 mM CuSO4, 1 mM TCEP, 100 uM THPTA from a 5 mM DMSO stock, dissolved in Milli-Q Water) and a 10 mM stock solution of azide fluor 545 (1 μL) and incubated at 0 °C for 14 h. […] Protein samples for SDS-PAGE were first prepared in 1 × Laemmli sample buffer (diluted from 4 × Laemmli sample buffer (ROTI®Load), and subsequently denatured at 100 °C for 15 min. After SDS-PAGE gel electrophoresis separation, the fluorescence was visualized (Ex. 520 nm, Em. 575 nm) on the SDS PAGE gel using ImageQuant^TM 4000 LAS (GE Healthcare, Chicago, IL, USA). Secondly, the gels were stained with Bio-Safe Coomassie Brilliant Blue G-250 (BioRad) for 60 min. De-staining was performed with 40% (v/v) methanol, 10% (v/v) glacial acetic acid, 50% (v/v) Milli-Q water until protein bands became visible.

What is called IC50 is the concentration that gives 50% inhibition. On to `O=C(COC(=O)c1ccc(NC(=O)c2cccc(OCc3ccccc3)c2)cc1)c1ccc(Cl)cc1` [Compound 7, reference compound], for which the IC50 is 64 µM in data set [1], over 100 µM in data set [2] and 9.3 µM in data set [3].
What is called melting point is the temperature of the solid-liquid transition. On to `COC(=O)c1ccc(-c2cn(CC(=O)N3c4ccccc4NC(=O)C34CCCC4)nn2)cc1` [Compound 48, Methyl 4-[1-(2-oxo-2-{3′-oxo-3′,4′-dihydro-1′H-spiro[cyclopentane-1,2′-quinoxalin]-1′-yl}ethyl)-1H-1,2,3-triazol-4-yl]benzoate], for which the melting point was 263 °C (dec.). Besides, in data set [4], the IC50 was 7.5 µM.
With `COc1ccc(-c2cn(CC(=O)N3c4ccccc4NC(=O)C34CCCC4)nn2)cc1` [Compound 49, 1′-{2-[4-(4-Methoxyphenyl)-1H-1,2,3-triazol-1-yl]acetyl}-3′,4′-dihydro-1′H-spiro[cyclopentane-1,2′-quinoxalin]-3′-one], the melting point was 249 °C (dec.). Moreover, the IC50 in data set [4] came out at 13 µM.
Take `O=C(Cn1cc(-c2ccccn2)nn1)N1c2ccccc2NC(=O)C12CCCC2` [Compound 50, 1′-{2-[4-(Pyridin-2-yl)-1H-1,2,3-triazol-1-yl]acetyl}-3′,4′-dihydro-1′H-spiro[cyclopentane-1,2′-quinoxalin]-3′-one]: the melting point was 218 °C (dec.). In addition, in data set [4], the IC50 is over 200 µM. Besides, in data set [4] (at 200 µM), the “SENP1 inhibition in words” value is on record as “only slight inhibition”.
In the case of `O=C(O)Cc1cn(CC(=O)N2c3ccccc3NC(=O)C23CCCC3)nn1` [Compound 52, 2-[1-(2-Oxo-2-{3′-oxo-3′,4′-dihydro-1′H-spiro[cyclopentane-1,2′-quinoxalin]-1′-yl}ethyl)-1H-1,2,3-triazol-4-yl]acetic acid], the melting point is 230 °C (dec.). Besides, the IC50 in data set [4] was over 100 µM.
The corresponding values for `O=C(Cn1nnnc1-c1ccccc1)N1c2ccccc2NC(=O)C12CCCC2` [Compound 54, 1′-[2-(5-Phenyl-1H-1,2,3,4-tetrazol-1-yl)acetyl]-3′,4′-dihydro-1′H-spiro[cyclopentane-1,2′-quinoxalin]-3′-one] are 197 to 202 °C (dec.) and 50 µM.
Take `O=C(Cn1nnc(-c2ccccc2)n1)N1c2cscc2NC(=O)C12CCCC2` [Compound 55, 1′-[2-(5-Phenyl-2H-1,2,3,4-tetrazol-2-yl)acetyl]-3′,4′-dihydro-1′H-spiro[cyclopentane-1,2′-thieno [3,4-b]pyrazin]-3′-one]: the melting point was 231 to 233 °C. Also, in data set [5], the IC50 came to 18 µM. Moreover, the IC50 in data set [4] was 10 µM. For the same compound, the midpoint of inhibition in data set [1], the IC50, lay at 132 µM. For the same compound, in data set [6], the IC50 worked out at 23 µM. In data set [2], this compound returned a concentration for half-maximal inhibition (IC50) of over 100 µM. This compound displayed an IC50 in data set [3] of 5.8 µM.
For the compound `C#CCCC1(CCC(=O)N2c3ccccc3NC(=O)C23CCCC3)N=N1` [Compound 56, 1′-{3-[3-(But-3-yn-1-yl)-3H-diazirin-3-yl]propanoyl}-3′,4′-dihydro-1′H-spiro[cyclopentane-1,2′-quinoxalin]-3′-one], in data set [4], the IC50 came to 24 µM. In addition, the “covalent labelling of SENP1 by photo probe (TAMRA-azide fluorescence)” value in data set [7] is recorded as “fluorescent band was visible”.
Take `CCCCCCCC(=O)N1c2ccccc2NC(=O)C12CCCC2` [Compound 57, 1′-Octanoyl-3′,4′-dihydro-1′H-spiro[cyclopentane-1,2′-quinoxalin]-3′-one]: the melting point was in the range of 67 to 70 °C. Moreover, the IC50 in data set [4] was 6.6 µM.
